# Test results from publication PMC12914960, “Repurposing a detrimental antibody epitope as targeted therapeutics for sepsis and rheumatoid arthritis” (Military Medical Research, 2026).
# “And” between values parts separate entries of the source, which are not always exact repeats. Identical values can stand only once. Where a SMILES comes first, the peptide text is derived from it.
# How the values were obtained:
# [1] = system: CLP-induced serum cytokines and chemokines; test: Serum cytokines/chemokines after CLP, murine cytokine antibody arrays; assay type: in vivo, mouse; parameters: BLC / G-CSF / GM-CSF / IL-6 / KC / MCP-1 / MIP-2 / MIP-1 gama / PF-4 / sTNF-RI: unit not given here; conditions: for BLC / G-CSF / GM-CSF / IL-6 / KC / MCP-1 / MIP-1 gama / MIP-2 / PF-4 / sTNF-RI: serum 24 h, individual values
# Procedure: Experimental sepsis was induced in BALB/c mice via CLP as previously described. […] The animals were randomly assigned to the control vehicle (n = 10 or n = 20) or experimental groups (n = 10 or n = 20). P2 (5.0 mg/kg), P2-1 (0.1 mg/kg or 1.0 mg/kg), or tetranectin N-terminal deletion mutant (ΔTN) (1.0 mg/kg) were administered intraperitoneally (i.p.) at the indicated time points, and survival rates were monitored. To elucidate P2-1’s protective mechanisms, a separate group of BALB/c mice (n = 4) underwent CLP and received P2-1 (1.0 mg/kg) at 2 h and 20 h post-CLP. At 24 h post-CLP, the animals were euthanized, blood was collected, and serum cytokines and chemokines were measured via murine cytokine antibody arrays as previously described. More details are presented in Additional file 1: Methods.
# The levels of cytokines and chemokines in mouse serum and joint tissue lysates, or human PBMC culture supernatants, were determined via murine or human cytokine antibody arrays (e.g., Cat. #AAM-CYM-3–8 or Cat. #AAH-CYT-3–8, RayBiotech Inc., Norcross, GA, USA) as previously described. For the sepsis model, blood samples were collected from the mice (n = 4) at 24 h post-CLP. For the CAIA model, soft tissues from the hindpaw and ankle joints were carefully harvested from normal (n = 2) and CAIA (n = 4) mice using a previously established protocol. Briefly, 0.5 g of fresh soft tissue was cut into 3 mm pieces and mixed with 400 µl of a hypertonic solution (500 ml of PBS with 4.5 g of NaCl and 2 × protease inhibitor cocktail) in a 10 ml syringe. Mechanical extrusion, involving 30 rapid back-and-forth movements of the plunger, was then performed. The expelled extracellular fluid was collected, immediately aliquoted, and stored at −20 °C until analysis. Cell-conditioned medium was collected from PBMC cultures after 16 h of stimulation. Arrays were performed according to the manufacturer’s protocol, followed by chemiluminescent detection and densitometric quantification as previously described.
# BALB/c mice subjected to CLP-induced sepsis received P2-1 (0.1 or 1.0 mg/kg) intraperitoneally twice, at 2 h and 20 h post-CLP. At 24 h post-CLP, the animals were sacrificed, and blood was harvested for cytokine and chemokine measurements via cytokine antibody arrays. ^*P < 0.05 vs. the negative control (“- CLP”); ^#P < 0.05 vs. the positive control (“ + CLP”) group, non-parametric Kruskal-Wallis ANOVA test. CLP cecal ligation and puncture, BLC B-lymphocyte chemoattractant, CCL C–C motif chemokine ligand, CXCL C-X-C motif chemokine ligand, IL interleukin, G-CSF granulocyte colony-stimulating factor, KC keratinocyte-derived chemokine, GRO growth-regulated oncogene, MIP macrophage inflammatory protein, PF platelet factor, sTNFR soluble tumor necrosis factor receptor
# [2] = system: Differentiated human macrophages; test: HMGB1-induced macrophage death, trypan blue uptake; assay type: cell-based; conditions: 16 h; for Trypan blue uptake: individual replicates
# Procedure: Human macrophage differentiation and treatment
# Human PBMCs were differentiated into macrophages by culturing in human macrophage colony-stimulating factor (M-CSF, 20 ng/ml) for 5 – 6 d. Differentiated macrophages were maintained in Dulbecco’s modified Eagle’s medium supplemented with 1% penicillin/streptomycin and 10% human serum. Upon reaching 70 – 80% conflu ence, adh erent cells were wash ed and switched to Opti-MEM I before stimulation with recombinant HMGB1 (0.5 µg/ml) with or without P2- 1 (5.0 or 10 µg/ml) for 16 […]
# Cell viability was assessed via the tryp an blue excl usion and lactat e dehyd ro genase (LDH) release method as previously described . For trypan blue exclusion, random phase-contr ast images were captur ed , and the percentage of nonviable, trypan blue-stained cells was calculated. LDH release in the culture medium was quantified with an LDH Ass ay Kit (Cat. #L7572, Pointe Scientific Inc., Canton, MI, USA) according to the manufacturer ’s instructions. Optical density was measured at 340 nm, and LDH content was expressed as a per centag e of maximal release in the presence of 2% Triton X-100. The experiments were performed 5 – 7 times ( n= 5 –7 biological replicates). […]
# [3] = CLP + P2-1 0.1 mg/kg, 0.1 mg/kg
structure (smiles),measurement,setting,value
CCCC[C@H](NC(=O)[C@H](Cc1c[nH]cn1)NC(=O)[C@@H](NC(=O)[C@H](CCCCN)NC(=O)[C@@H](N)[C@@H](C)O)C(C)C)C(=O)N[C@@H](CCCCN)C(=O)N[C@@H](CO)C(=O)N[C@@H](Cc1ccccc1)C(=O)N[C@@H](CC(C)C)C(=O)N[C@@H](C)C(=O)N[C@@H](Cc1ccccc1)C(=O)N[C@@H](CCC(N)=O)C(=O)N[C@H](C(=O)N[C@@H](CCCCN)C(=O)N[C@H](C(=O)O)[C@@H](C)O)[C@@H](C)O [P2-1] (HELM PEPTIDE1{T.K.V.H.[Nle].K.S.F.L.A.F.Q.T.K.T}$$$$V2.0; N-terminus and C-terminus assumed),BLC,"[1]; CLP + P2-1 0.1 mg/kg i.p. 2 h and 20 h post-CLP, 0.1 mg/kg",257.4 and 202.1 and 204.2 and 224.3
same,G-CSF,[1]; [3],161.4 and 173.4 and 290.4 and 305.7
same,GM-CSF,[1]; [3],23.2 and 56 and 52.8 and 13.6
same,IL-6,[1]; [3],59.36 and 56.19 and 57.95 and 55.32
same,KC,[1]; [3],128.7 and 116.3 and 31.9 and 105.9
same,MCP-1,[1]; [3],25.4 and 25.6 and 31.2 and 21.8
same,MIP-1 gama,[1]; [3],280.3 and 263.7 and 278.8 and 275.6
same,MIP-2,[1]; [3],203.2 and 193.1 and 174.2 and 159.2
same,PF-4,[1]; [3],302.3 and 268.3 and 285.4 and 298.4
same,sTNF-RI,[1]; [3],143.4 and 116.1 and 179.9 and 149.3
same,BLC,"[1]; CLP + P2-1 1.0 mg/kg i.p. 2 h and 20 h post-CLP, 1 mg/kg",42.8 and 33.1 and 30.9 and 35.4
same,G-CSF,"[1]; CLP + P2-1 1.0 mg/kg, 1 mg/kg",111.9 and 128.7 and 120.4 and 100.4
same,GM-CSF,"[1]; CLP + P2-1 1.0 mg/kg, 1 mg/kg",0.79 and 1.5 and 1.2 and 3.4
same,IL-6,"[1]; CLP + P2-1 1.0 mg/kg, 1 mg/kg",16.8 and 16.2 and 14.3 and 20.4
same,KC,"[1]; CLP + P2-1 1.0 mg/kg, 1 mg/kg",151.9 and 155 and 10.5 and 15.5
same,MCP-1,"[1]; CLP + P2-1 1.0 mg/kg, 1 mg/kg",6.8 and 7.9 and 7.4 and 5.2
same,MIP-1 gama,"[1]; CLP + P2-1 1.0 mg/kg, 1 mg/kg",128.6 and 137.5 and 54.5 and 68.8
same,MIP-2,"[1]; CLP + P2-1 1.0 mg/kg, 1 mg/kg",172.1 and 177.3 and 14.9 and 12.4
same,PF-4,"[1]; CLP + P2-1 1.0 mg/kg, 1 mg/kg",109.2 and 118.3 and 114.4 and 64.9
same,sTNF-RI,"[1]; CLP + P2-1 1.0 mg/kg, 1 mg/kg",21.5 and 32.7 and 198.2 and 143.4
same,"sepsis-induced systemic cytokines/chemokines, in words","[1]; P2-1 i.p. at 2 h and 20 h post-CLP, blood at 24 h, BLC, G-CSF, IL-6, KC, MIP-1γ, MIP-2, PF-4, sTNFRI",significantly reduced sepsis-induced systemic accumulation
same,Trypan blue uptake,[2]; HMGB1 0.5 µg/ml + P2-1 5.0 μg/ml,4.1% and 2.7% and 4.8% and 2.3% and 0.9% and 2.4%
same,Trypan blue uptake,[2]; HMGB1 0.5 µg/ml + P2-1 10.0 μg/ml,2.9% and 0.8% and 3.8% and 1.1% and 4.2% and 3.6% and 2.4%
same,"HMGB1-induced macrophage death, in words","[2]; trypan blue uptake and LDH release, HMGB1 0.5 µg/ml, P2-1 5.0 or 10 µg/ml",significantly inhibited HMGB1-induced macrophage death
